According to ChEMBL document CHEMBL4649982, “Selective targeting of Bromodomains of the Bromodomain-PHD Fingers family impairs osteoclast differentiation” (ACS Chem Biol, 2017):
“And” between values parts separate entries of the source, which are not always exact repeats. Identical values can stand only once.

Experiments:
[1] = target: Bromodomain-containing protein 3 (Homo sapiens) (UniProt Q15059); conditions: Compound concentration 10.0 uM, Protein concentration 2.0 uM
[2] = target: Bromodomain testis-specific protein (Homo sapiens) (UniProt Q58F21); conditions: Compound concentration 10.0 uM, Protein concentration 2.0 uM
[3] = target: Bromodomain adjacent to zinc finger domain protein 2B (Homo sapiens) (UniProt Q9UIF8); conditions: Compound concentration 10.0 uM, Protein concentration 2.0 uM
[4] = target: Bromodomain-containing protein 1 (Homo sapiens) (UniProt O95696); conditions: Compound concentration 10.0 uM, Protein concentration 2.0 uM
[5] = target: Histone-lysine N-methyltransferase 2A (Homo sapiens) (UniProt Q03164); conditions: Compound concentration 10.0 uM, Protein concentration 2.0 uM
[6] = target: Transcription initiation factor TFIID subunit 1 (Homo sapiens) (UniProt P21675); conditions: Compound concentration 10.0 uM, Protein concentration 2.0 uM
[7] = target: SWI/SNF-related matrix-associated actin-dependent regulator of chromatin subfamily A member 2 (Homo sapiens) (UniProt P51531); conditions: Compound concentration 10.0 uM, Protein concentration 2.0 uM
[8] = target: Protein polybromo-1 (Homo sapiens) (UniProt Q86U86); conditions: Compound concentration 10.0 uM, Protein concentration 2.0 uM
Chain of Protein polybromo-1 (Homo sapiens) (Q86U86 whole entry): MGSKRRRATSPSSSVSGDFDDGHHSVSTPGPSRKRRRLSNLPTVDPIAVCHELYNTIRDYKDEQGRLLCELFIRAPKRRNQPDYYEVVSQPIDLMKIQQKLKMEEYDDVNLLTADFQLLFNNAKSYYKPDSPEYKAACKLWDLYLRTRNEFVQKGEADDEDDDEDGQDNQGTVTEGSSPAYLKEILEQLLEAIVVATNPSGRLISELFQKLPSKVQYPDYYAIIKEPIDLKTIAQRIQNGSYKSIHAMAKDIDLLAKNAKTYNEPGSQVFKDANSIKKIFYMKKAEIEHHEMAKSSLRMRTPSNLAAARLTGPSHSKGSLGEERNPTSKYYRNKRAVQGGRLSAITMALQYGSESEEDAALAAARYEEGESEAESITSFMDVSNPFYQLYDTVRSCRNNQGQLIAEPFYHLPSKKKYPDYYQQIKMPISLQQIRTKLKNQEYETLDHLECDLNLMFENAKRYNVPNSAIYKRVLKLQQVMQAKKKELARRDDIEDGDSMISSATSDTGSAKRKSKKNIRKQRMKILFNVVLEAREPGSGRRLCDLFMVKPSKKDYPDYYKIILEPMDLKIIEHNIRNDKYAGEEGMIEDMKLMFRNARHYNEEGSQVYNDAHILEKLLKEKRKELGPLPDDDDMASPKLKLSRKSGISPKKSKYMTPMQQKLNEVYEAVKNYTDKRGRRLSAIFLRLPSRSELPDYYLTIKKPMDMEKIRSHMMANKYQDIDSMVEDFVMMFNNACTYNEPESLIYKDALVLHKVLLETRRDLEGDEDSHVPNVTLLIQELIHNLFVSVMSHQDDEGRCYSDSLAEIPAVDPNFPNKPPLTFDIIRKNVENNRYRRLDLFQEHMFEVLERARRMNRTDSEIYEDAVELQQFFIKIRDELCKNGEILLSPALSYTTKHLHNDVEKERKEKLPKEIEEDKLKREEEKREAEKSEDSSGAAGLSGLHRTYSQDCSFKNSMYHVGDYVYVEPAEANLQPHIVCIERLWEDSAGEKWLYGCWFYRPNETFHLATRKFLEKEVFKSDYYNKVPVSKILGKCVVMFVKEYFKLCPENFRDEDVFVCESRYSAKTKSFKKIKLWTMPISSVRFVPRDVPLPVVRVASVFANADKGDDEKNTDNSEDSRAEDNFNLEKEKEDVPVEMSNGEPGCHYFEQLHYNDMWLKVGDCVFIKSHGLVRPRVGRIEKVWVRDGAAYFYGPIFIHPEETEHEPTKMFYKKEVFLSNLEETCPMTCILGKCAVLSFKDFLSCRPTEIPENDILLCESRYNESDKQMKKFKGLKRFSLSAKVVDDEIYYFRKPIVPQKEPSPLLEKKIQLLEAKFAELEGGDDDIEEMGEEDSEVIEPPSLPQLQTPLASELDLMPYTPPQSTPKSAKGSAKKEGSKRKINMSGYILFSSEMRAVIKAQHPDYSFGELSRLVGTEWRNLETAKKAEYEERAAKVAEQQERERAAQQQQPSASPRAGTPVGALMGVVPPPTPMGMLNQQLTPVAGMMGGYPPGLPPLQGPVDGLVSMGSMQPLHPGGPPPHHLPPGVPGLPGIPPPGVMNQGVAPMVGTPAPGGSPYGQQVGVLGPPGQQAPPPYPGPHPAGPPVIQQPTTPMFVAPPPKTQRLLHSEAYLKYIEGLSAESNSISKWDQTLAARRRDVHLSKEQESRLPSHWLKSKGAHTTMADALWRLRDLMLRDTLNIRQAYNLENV

[9] = target: Transcription initiation factor TFIID subunit 1-like (Homo sapiens) (UniProt Q8IZX4); conditions: Compound concentration 10.0 uM, Protein concentration 2.0 uM
Chain of Transcription initiation factor TFIID subunit 1-like (Homo sapiens) (Q8IZX4 whole entry, the tested form may be a part): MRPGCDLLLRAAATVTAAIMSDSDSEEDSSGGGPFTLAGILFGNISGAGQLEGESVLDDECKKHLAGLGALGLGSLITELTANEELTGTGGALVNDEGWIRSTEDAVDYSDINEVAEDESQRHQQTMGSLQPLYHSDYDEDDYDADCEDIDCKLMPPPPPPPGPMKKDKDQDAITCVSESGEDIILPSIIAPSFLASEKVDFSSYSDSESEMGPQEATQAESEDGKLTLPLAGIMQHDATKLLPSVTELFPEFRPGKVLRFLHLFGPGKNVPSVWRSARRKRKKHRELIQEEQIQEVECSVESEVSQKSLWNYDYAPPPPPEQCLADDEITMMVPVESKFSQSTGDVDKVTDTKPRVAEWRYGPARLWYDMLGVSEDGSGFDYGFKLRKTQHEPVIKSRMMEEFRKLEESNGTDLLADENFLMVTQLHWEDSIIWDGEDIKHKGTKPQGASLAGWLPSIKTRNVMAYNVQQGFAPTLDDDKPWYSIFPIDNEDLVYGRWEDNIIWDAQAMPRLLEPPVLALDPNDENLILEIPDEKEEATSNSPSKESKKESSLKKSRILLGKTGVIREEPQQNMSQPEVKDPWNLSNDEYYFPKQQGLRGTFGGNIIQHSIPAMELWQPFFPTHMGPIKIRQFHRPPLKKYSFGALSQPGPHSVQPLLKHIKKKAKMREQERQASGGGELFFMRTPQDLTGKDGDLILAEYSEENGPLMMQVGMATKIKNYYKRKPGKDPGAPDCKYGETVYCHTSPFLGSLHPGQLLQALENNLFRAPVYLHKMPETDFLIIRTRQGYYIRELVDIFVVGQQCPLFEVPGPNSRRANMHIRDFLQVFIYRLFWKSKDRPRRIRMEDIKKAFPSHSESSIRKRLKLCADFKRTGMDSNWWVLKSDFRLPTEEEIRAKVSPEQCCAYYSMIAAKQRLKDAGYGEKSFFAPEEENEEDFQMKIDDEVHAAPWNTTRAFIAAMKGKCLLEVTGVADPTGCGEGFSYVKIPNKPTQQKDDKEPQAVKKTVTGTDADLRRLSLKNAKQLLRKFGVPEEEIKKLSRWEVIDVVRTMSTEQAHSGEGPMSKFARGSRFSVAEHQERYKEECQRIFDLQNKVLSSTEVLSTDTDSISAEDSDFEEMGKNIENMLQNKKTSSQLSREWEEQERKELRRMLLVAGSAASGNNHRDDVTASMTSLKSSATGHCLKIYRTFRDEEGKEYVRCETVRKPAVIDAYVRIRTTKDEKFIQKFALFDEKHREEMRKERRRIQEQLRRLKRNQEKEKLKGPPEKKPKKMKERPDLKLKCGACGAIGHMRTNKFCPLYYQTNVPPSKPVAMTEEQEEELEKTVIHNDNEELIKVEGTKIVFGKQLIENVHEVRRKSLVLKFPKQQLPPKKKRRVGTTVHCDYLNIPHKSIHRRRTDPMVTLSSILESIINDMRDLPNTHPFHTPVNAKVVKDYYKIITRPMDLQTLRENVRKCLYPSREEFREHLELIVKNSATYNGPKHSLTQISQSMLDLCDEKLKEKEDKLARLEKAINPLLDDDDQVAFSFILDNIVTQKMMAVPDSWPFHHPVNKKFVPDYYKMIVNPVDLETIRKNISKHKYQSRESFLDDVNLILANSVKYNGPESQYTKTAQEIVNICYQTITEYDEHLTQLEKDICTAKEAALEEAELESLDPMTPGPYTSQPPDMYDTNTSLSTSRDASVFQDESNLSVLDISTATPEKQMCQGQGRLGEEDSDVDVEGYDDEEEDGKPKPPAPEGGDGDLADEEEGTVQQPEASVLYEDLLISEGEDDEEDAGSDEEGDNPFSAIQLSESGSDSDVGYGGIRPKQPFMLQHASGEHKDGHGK

[10] = target: Bromodomain-containing protein 2 (Homo sapiens) (UniProt P25440); conditions: Compound concentration 10.0 uM, Protein concentration 2.0 uM
[11] = target: ATPase family AAA domain-containing protein 2 (Homo sapiens) (UniProt Q6PL18); conditions: Compound concentration 10.0 uM, Protein concentration 2.0 uM
[12] = target: Bromodomain-containing protein 1 (Homo sapiens, UniProt O95696)
[13] = target: Bromodomain testis-specific protein (Homo sapiens) (UniProt Q58F21); conditions: Compound concentration 10.0 uM, Protein concentration 2.0 uM; remark: listed apart in the source
[14] = target: T1, E3 ubiquitin-protein ligase TRIM33 (Homo sapiens) (UniProt Q9UPN9); test: Thermal Shift Assay. Domain start/stop: D882-P1073; conditions: Compound concentration 10.0 uM
T1 sequence (whole entry): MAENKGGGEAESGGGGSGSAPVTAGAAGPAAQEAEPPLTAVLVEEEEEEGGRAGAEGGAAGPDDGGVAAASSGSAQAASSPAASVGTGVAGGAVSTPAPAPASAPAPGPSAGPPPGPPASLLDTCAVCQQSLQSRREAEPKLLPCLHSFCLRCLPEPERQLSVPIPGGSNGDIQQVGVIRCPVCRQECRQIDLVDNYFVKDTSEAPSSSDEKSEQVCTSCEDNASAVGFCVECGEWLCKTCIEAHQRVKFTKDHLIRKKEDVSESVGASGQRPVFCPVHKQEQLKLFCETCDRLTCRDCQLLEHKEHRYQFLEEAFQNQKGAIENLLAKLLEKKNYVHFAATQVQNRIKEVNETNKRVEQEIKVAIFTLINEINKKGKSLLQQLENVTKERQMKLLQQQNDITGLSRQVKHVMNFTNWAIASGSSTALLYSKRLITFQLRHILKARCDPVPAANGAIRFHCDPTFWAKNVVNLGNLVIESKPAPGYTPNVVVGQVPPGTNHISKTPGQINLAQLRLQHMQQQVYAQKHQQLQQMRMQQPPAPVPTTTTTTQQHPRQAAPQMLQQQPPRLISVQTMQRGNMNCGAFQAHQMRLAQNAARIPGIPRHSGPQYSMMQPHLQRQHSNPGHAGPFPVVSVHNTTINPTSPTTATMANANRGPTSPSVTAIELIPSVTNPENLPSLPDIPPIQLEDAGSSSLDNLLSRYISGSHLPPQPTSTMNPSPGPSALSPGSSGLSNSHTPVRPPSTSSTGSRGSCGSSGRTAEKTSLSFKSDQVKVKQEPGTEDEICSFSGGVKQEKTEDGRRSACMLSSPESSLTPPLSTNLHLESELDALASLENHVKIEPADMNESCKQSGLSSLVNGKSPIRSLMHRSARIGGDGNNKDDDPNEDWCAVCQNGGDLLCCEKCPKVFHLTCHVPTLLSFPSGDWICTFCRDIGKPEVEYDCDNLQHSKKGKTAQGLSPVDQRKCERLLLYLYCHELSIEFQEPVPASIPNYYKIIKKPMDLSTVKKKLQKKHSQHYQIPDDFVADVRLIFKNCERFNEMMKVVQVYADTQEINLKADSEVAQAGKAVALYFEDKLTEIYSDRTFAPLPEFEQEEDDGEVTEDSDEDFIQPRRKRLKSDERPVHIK

[15] = target: Nuclear body protein SP140-like protein (Homo sapiens) (UniProt Q9H930); conditions: Compound concentration 10.0 uM, Protein concentration 2.0 uM
Chain of Nuclear body protein SP140-like protein (Homo sapiens) (Q9H930 whole entry): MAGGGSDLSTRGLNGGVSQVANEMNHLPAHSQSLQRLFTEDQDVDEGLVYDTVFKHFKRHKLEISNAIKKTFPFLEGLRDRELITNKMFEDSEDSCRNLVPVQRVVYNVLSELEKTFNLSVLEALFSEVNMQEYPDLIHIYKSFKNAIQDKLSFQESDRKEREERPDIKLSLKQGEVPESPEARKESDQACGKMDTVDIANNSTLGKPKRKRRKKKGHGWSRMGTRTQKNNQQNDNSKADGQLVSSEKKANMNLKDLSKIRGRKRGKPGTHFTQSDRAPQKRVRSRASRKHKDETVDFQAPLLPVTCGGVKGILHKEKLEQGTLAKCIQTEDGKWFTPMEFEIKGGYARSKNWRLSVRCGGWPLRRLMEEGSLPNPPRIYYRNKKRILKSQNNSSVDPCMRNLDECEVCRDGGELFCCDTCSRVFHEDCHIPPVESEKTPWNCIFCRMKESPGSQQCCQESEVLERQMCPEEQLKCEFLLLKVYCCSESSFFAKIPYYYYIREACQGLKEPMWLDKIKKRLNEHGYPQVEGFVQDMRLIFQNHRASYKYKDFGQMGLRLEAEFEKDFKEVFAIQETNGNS

[16] = target: Protein polybromo-1 (Homo sapiens) (UniProt Q86U86); conditions: Compound concentration 10.0 uM, Protein concentration 2.0 uM; remark: listed apart in the source
[17] = target: Bromodomain and WD repeat-containing protein 3 (Homo sapiens) (UniProt Q6RI45); conditions: Compound concentration 10.0 uM, Protein concentration 2.0 uM
[18] = target: Transcription intermediary factor 1-alpha (Homo sapiens) (UniProt O15164); test: Thermal Shift Assay. Domain start/stop: N790-P971; conditions: Compound concentration 10.0 uM, Protein concentration 2.0 uM
Chain of Transcription intermediary factor 1-alpha (Homo sapiens) (O15164 whole entry): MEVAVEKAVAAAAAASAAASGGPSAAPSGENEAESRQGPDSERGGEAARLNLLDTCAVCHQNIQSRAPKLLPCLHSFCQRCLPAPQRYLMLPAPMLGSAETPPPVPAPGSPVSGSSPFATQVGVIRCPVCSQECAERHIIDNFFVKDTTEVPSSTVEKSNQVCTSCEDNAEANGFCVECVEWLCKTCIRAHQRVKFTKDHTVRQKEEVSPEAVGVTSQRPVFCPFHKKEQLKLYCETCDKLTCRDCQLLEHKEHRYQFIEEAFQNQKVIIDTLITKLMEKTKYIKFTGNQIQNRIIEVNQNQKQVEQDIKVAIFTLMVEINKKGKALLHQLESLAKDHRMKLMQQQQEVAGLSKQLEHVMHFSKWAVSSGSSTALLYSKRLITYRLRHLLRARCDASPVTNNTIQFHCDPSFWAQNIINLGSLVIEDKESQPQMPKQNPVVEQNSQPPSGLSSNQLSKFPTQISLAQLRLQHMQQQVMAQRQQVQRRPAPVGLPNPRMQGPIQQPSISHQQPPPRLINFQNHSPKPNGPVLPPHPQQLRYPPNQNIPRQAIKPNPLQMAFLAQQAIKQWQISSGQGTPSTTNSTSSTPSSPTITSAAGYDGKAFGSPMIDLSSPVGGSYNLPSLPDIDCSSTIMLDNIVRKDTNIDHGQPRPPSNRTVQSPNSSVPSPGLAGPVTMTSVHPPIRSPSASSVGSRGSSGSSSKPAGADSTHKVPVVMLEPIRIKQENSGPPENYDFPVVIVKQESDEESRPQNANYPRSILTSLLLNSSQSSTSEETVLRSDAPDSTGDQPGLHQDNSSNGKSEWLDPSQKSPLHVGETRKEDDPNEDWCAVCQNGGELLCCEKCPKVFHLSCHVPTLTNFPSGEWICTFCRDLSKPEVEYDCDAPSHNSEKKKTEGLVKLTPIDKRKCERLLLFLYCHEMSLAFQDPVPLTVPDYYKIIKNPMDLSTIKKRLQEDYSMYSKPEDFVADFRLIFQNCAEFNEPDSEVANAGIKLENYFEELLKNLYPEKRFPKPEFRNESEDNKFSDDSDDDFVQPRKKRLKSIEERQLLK

[19] = target: Transcription intermediary factor 1-alpha (Homo sapiens) (UniProt O15164); conditions: Compound concentration 10.0 uM, Protein concentration 2.0 uM
[20] = target: Transcription intermediary factor 1-beta (Homo sapiens) (UniProt Q13263); conditions: Compound concentration 10.0 uM, Protein concentration 2.0 uM
[21] = target: Histone acetyltransferase KAT2A (Homo sapiens) (UniProt Q92830); conditions: Compound concentration 10.0 uM, Protein concentration 2.0 uM
[22] = target: Bromodomain and WD repeat-containing protein 1 (Homo sapiens) (UniProt Q9NSI6); conditions: Compound concentration 10.0 uM, Protein concentration 2.0 uM
[23] = target: Bromodomain adjacent to zinc finger domain protein 1A (Homo sapiens) (UniProt Q9NRL2); conditions: Compound concentration 10.0 uM, Protein concentration 2.0 uM
[24] = target: T1, E3 ubiquitin-protein ligase TRIM33 (Homo sapiens); conditions: Compound concentration […], Protein concentration 200.0 uM
[25] = target: Nucleosome-remodeling factor subunit BPTF (Homo sapiens) (UniProt Q12830); conditions: Compound concentration 10.0 uM, Protein concentration 2.0 uM
Peregrin (Homo sapiens) [26] = target: Peregrin (Homo sapiens) (UniProt P55201); conditions: Compound concentration 10.0 uM, Protein concentration 2.0 uM
[27] = target: ATPase family AAA domain-containing protein 2B (Homo sapiens) (UniProt Q9ULI0); conditions: Compound concentration 10.0 uM, Protein concentration 2.0 uM
[28] = target: Bromodomain-containing protein 3 (Homo sapiens) (UniProt Q15059); conditions: Compound concentration 10.0 uM, Protein concentration 2.0 uM; remark: listed apart in the source
[29] = target: Histone-lysine N-methyltransferase ASH1L (Homo sapiens) (UniProt Q9NR48); conditions: Compound concentration 10.0 uM, Protein concentration 2.0 uM
[30] = target: Protein polybromo-1 (Homo sapiens) (UniProt Q86U86); conditions: Compound concentration 10.0 uM, Protein concentration 2.0 uM; remark: listed apart in the source
[31] = target: Transcription initiation factor TFIID subunit 1-like (Homo sapiens) (UniProt Q8IZX4); conditions: Compound concentration 10.0 uM, Protein concentration 2.0 uM; remark: listed apart in the source
[32] = target: Bromodomain adjacent to zinc finger domain protein 2A (Homo sapiens) (UniProt Q9UIF9); conditions: Compound concentration 10.0 uM, Protein concentration 2.0 uM
Peregrin (Homo sapiens) [33] = target: Peregrin (Homo sapiens) (UniProt P55201); conditions: Compound concentration 10.0 uM, Protein concentration 2.0 uM; remark: listed apart in the source
[34] = target: Transcription initiation factor TFIID subunit 1 (Homo sapiens) (UniProt P21675); conditions: Compound concentration 10.0 uM, Protein concentration 2.0 uM; remark: listed apart in the source
[35] = target: Protein polybromo-1 (Homo sapiens) (UniProt Q86U86); conditions: Compound concentration 10.0 uM, Protein concentration 2.0 uM; remark: listed apart in the source
[36] = target: CREB-binding protein (Homo sapiens) (UniProt Q92793); conditions: Compound concentration 10.0 uM, Protein concentration 2.0 uM
[37] = target: Nuclear body protein SP140 (Homo sapiens) (UniProt Q13342); conditions: Compound concentration 10.0 uM, Protein concentration 2.0 uM
[38] = target: Tyrosine-protein kinase BAZ1B (Homo sapiens) (UniProt Q9UIG0); conditions: Compound concentration 10.0 uM, Protein concentration 2.0 uM
[39] = target: SWI/SNF-related matrix-associated actin-dependent regulator of chromatin subfamily A member 4 (Homo sapiens) (UniProt P51532); conditions: Compound concentration 10.0 uM, Protein concentration 2.0 uM
[40] = target: Bromodomain-containing protein 7 (Homo sapiens) (UniProt Q9NPI1); conditions: Compound concentration 10.0 uM, Protein concentration 2.0 uM
[41] = target: Bromodomain-containing protein 4 (Homo sapiens) (UniProt O60885); conditions: Compound concentration 10.0 uM, Protein concentration 2.0 uM
[42] = target: Histone acetyltransferase KAT2B (Homo sapiens) (UniProt Q92831); conditions: Compound concentration 10.0 uM, Protein concentration 2.0 uM
[43] = target: Chromatin remodeling regulator CECR2 (Homo sapiens) (UniProt Q9BXF3); conditions: Compound concentration 10.0 uM, Protein concentration 2.0 uM
[44] = target: PH-interacting protein (Homo sapiens) (UniProt Q8WWQ0); conditions: Compound concentration 10.0 uM, Protein concentration 2.0 uM
[45] = target: Protein polybromo-1 (Homo sapiens) (UniProt Q86U86); conditions: Compound concentration 10.0 uM, Protein concentration 2.0 uM; remark: listed apart in the source
[46] = target: Histone acetyltransferase p300 (Homo sapiens) (UniProt Q09472); conditions: Compound concentration 10.0 uM, Protein concentration 2.0 uM
[47] = target: Chromatin remodeling regulator CECR2 (Homo sapiens) (UniProt Q9BXF3); conditions: Compound concentration 10.0 uM, Protein concentration 2.0 uM; remark: listed apart in the source
[48] = target: Bromodomain and PHD finger-containing protein 3 (Homo sapiens) (UniProt Q9ULD4); conditions: Compound concentration 10.0 uM, Protein concentration 2.0 uM
[49] = target: Protein polybromo-1 (Homo sapiens) (UniProt Q86U86); conditions: Compound concentration 10.0 uM, Protein concentration 2.0 uM; remark: listed apart in the source
[50] = target: Bromodomain-containing protein 2 (Homo sapiens) (UniProt P25440); conditions: Compound concentration 10.0 uM, Protein concentration 2.0 uM; remark: listed apart in the source
[51] = target: Bromodomain-containing protein 9 (Homo sapiens) (UniProt Q9H8M2); conditions: Compound concentration 10.0 uM, Protein concentration 2.0 uM

For `COc1cc2c(cc1NS(=O)(=O)c1ccc(Br)cc1C)n(C)c(=O)n2C`, the ΔTm [1] was 1.93 °C, the ΔTm [2] was 1.5 °C and the ΔTm [3] was 1.14 °C. For the same molecule, the ΔTm [4] was 3.15 °C and 3.42 °C, the ΔTm [5] was 0.64 °C and the ΔTm [6] was 0.35 °C. For the same molecule, the ΔTm [7] was 0.38 °C, the ΔTm [8] was 0.28 °C and the ΔTm [9] was -1.08 °C and 1.68 °C. The ΔTm [10] was 1.41 °C, the ΔTm [11] was 0.15 °C and the IC50 [12] was 128 nM. For the same molecule, the ΔTm [13] was 1.19 °C, the ΔTm ([14]; Protein concentration 2.0 uM) was -0.61 °C and the ΔTm ([14]; Protein concentration […]) was -0.23 °C. The ΔTm [15] was 0.82 °C, the ΔTm [16] was 1.45 °C and the ΔTm [17] was 1.67 °C. For the same molecule, the ΔTm [18] was 0.91 °C, the ΔTm [19] was 1.16 °C and 2.05 °C and the ΔTm [20] was 0.37 °C. The ΔTm [21] was 0.57 °C, the ΔTm [22] was -0.9 °C and 1.4 °C and the ΔTm [23] was 1.07 °C. The inhibition [24] was 9.06%, the ΔTm [25] was 0.79 °C and 1.4 °C and the ΔTm (Peregrin (Homo sapiens) [26]) was 0.46 °C and 0.95 °C. For the same molecule, the ΔTm [27] was 0.21 °C, the ΔTm [28] was 2.03 °C and the ΔTm [29] was 0.82 °C. For the same molecule, the ΔTm [30] was 0.5 °C, the ΔTm [31] was 0.36 °C and the ΔTm [32] was 0.47 °C. For the same molecule, the ΔTm (Peregrin (Homo sapiens) [33]) was 7.61 °C and 6.99 °C and 6.03 °C, the ΔTm [34] was 0.36 °C and 0.33 °C and the ΔTm [35] was 0.53 °C. The ΔTm [36] was 1.22 °C and 1.19 °C, the ΔTm [37] was 0.32 °C and the ΔTm [38] was 0.53 °C. The ΔTm [39] was 0.35 °C, the ΔTm [40] was 1.42 °C and the ΔTm [41] was 1.31 °C. It also gave a ΔTm [42] of 0.53 °C, a ΔTm [43] of -0.25 °C and a ΔTm [44] of 0.36 °C. For the same molecule, the ΔTm [45] was 1.74 °C, the ΔTm [46] was 0.87 °C and the ΔTm [47] was 0.5 °C. For the same molecule, the ΔTm [48] was 1.85 °C and 3.4 °C, the ΔTm [49] was 0.96 °C and the ΔTm [50] was 1.02 °C. It also gave a ΔTm [51] of 1.48 °C.
